Results: patent US9475798B2, “Azetidine estrogen receptor modulators and uses thereof” (Genentech, Inc., priority 2013, dated 2016)
Where two headings read alike, the source gives them in different places.

Legend:
ER-α = target: T1, ER-α (Homo sapiens, UniProt P03372); assay: Breast Cancer Cell ER-α In-Cell Western Assay (SP1); format: cell-based; conditions: MCF7 cells, 4 hours; 100-{100*[(100-% ER level of Example)/(100-% ER level of Fulvestrant)]}
T1 construct: endogenous in cells; host or cells: MCF7
T1 sequence (P03372 1-595): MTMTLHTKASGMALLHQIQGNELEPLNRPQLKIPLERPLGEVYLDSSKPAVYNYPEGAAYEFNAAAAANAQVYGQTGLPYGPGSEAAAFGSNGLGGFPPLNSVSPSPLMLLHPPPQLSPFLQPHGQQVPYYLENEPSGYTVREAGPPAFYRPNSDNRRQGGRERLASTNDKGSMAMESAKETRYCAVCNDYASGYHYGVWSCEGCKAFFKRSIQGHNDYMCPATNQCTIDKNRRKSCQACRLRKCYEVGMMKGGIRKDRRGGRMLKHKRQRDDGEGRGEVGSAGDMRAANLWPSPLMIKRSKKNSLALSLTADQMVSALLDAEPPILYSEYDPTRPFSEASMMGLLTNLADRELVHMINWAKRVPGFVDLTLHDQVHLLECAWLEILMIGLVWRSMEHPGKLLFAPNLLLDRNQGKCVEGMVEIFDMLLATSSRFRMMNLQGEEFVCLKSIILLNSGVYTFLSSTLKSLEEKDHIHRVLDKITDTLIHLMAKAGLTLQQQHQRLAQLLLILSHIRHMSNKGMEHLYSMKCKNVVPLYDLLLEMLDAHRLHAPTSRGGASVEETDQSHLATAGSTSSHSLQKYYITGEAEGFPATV
Experimental: MCF7 cells were trypsinized and washed twice in Phenol Red Free RPMI containing 5% Charcoal Dextran Stripped serum with 20 mM HEPES and NEAA, then adjusted to a concentration of 200,000 cells per mL with the same medium. […] At 4 hours post compound addition, the cells were fixed by adding 16 μL of 30% formalin to the 32 μL of cells and compound (10% formalin final concentration) for 20 minutes. Cells were then washed twice with PBS Tween 0.1% and then permeabilized in PBS 0.1% Triton (50 μl/well) for additional 15 minutes. The PBS 0.1% triton was decanted, and the cells were washed: LI-COR blocking buffer (50 μL/well) was added, the plate was spun at 3000 rpm, and then the blocking buffer was decanted. Additional LI-COR blocking buffer (50 μL/well) was added, and the cells were incubated overnight at 4° C. The blocking buffer was decanted, and the cells were incubated overnight at 4° C. with SP1 (Thermo Scientific) anti-ER rabbit monoclonal antibody diluted 1:1000 in LI-COR blocking buffer/0.1% Tween-20. Wells which were treated with blocking buffer with Tween but no antibody were used as a background control. Wells were washed twice with PBS Tween 0.1% to remove free SP1 antibodies, and the cells were incubated at room temp for 60-90 minutes in LI-COR goat anti-rabbit IRDye™ 800 CW (1:1000) and DRAQ5 DNA dye (1:10000 of 5 mM stock solution) diluted in LI-COR blocking buffer containing 0.1% Tween-20 and 0.01% SDS. Cells were then washed with 0.1% Tween-20/PBS three times. Plates were scanned on a LI-COR Odyssey infrared imaging system. Integrated intensities in the 800 nm channel and 700 nm channel were measured to determine levels of ER-α and DNA respectively. Percent ER levels were determined as follows: (Integrated intensity 800 nm sample/integrated intensity 700 nm sample)/(Integrated intensity 800 nm untreated cells/integrated intensity 700 nm untreated cells)×100=% ER-α levels.

MCF-7 cells = assay: Breast Cancer Cell Viability Assay (MCF7, CellTiter-Glo); conditions: for MCF7 Viability Assay: % Viability relative to Fulvestrant: 5 days, 100-{100*[(100-% viability of Example)/(100-% viability of Fulvestrant)]};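 as to all read-outs here: CellTiter-Glo luminescence read-out, background from cell-free medium subtracted, viability expressed against untreated cells, ten-point 1:5 compound dilution series spanning 10 to 0.000005 µM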
[1] = read-out: MCF7 Viability Assay IC50, 5 days' compound exposure

CC1=C(c2ccc(F)cc2)C(c2ccc(OC[C@H](C)N3CC[C@@H](C)C3)cc2)Oc2ccc(O)cc21 (stereo partly drawn) [3-(4-fluorophenyl)-4-methyl-2-(4-((S)-2-((R)-3-methylpyrrolidin-1-yl)propoxy)phenyl)-2H-chromen-6-ol, reference compound]
ER-α In-Cell Western Assay (SP1): % ER-α remaining relative to Fulvestrant (ER-α): 18%
MCF7 Viability Assay: % Viability relative to Fulvestrant (MCF-7 cells): 17%
IC50 (MCF-7 cells; [1]): 0.4 nM

CC1=C(c2ccc(F)c(F)c2)C(c2ccc(OC[C@H](C)N3CC[C@@H](C)C3)cc2)Oc2ccc(O)cc21 (stereo partly drawn) [3-(3,4-difluorophenyl)-4-methyl-2-(4-((S)-2-((R)-3-methylpyrrolidin-1-yl)propoxy)phenyl)-2H-chromen-6-ol, reference compound]
ER-α In-Cell Western Assay (SP1): % ER-α remaining relative to Fulvestrant (ER-α): 14%
MCF7 Viability Assay: % Viability relative to Fulvestrant (MCF-7 cells): 19%
IC50 (MCF-7 cells; [1]): 0.7 nM

CC1=C(c2ccc(F)cc2)[C@H](c2ccc(OC[C@H](C)N3CC[C@@H](C)C3)cc2)Oc2ccc(O)cc21 [(S)-3-(4-fluorophenyl)-4-methyl-2-(4-((S)-2-((R)-3-methylpyrrolidin-1-yl)propoxy)phenyl)-2H-chromen-6-ol, reference compound]
ER-α In-Cell Western Assay (SP1): % ER-α remaining relative to Fulvestrant (ER-α): 16%
MCF7 Viability Assay: % Viability relative to Fulvestrant (MCF-7 cells): 14%
IC50 (MCF-7 cells; read-out: MCF7 Viability Assay IC50, 5 days' compound exposure, cell printed without unit): 0.3 nM

CC1=C(c2ccc(Cl)cc2)C(c2ccc(OCCN3CC(CF)C3)cc2)Oc2ccc(O)cc21 (stereo not shown) [Example 4, 3-(4-Chlorophenyl)-2-(4-(2-(3-(fluoromethyl)azetidin-1-yl)ethoxy)phenyl)-4-methyl-2H-chromen-6-ol]
ER-α In-Cell Western Assay (SP1): % ER-α remaining relative to Fulvestrant (ER-α): 3%
MCF7 Viability Assay: % Viability relative to Fulvestrant (MCF-7 cells): 3%
IC50 (MCF-7 cells; [1]): 1.2 nM

CC1=C(c2ccc(F)cc2)C(c2ccc(OCCN3CC(CF)C3)cc2)Oc2cc(O)ccc21 (stereo not shown) [Example 25, 2-(4-(2-(3-(Fluoromethyl)azetidin-1-yl)ethoxy)phenyl)-3-(4-fluorophenyl)-4-methyl-2H-chromen-7-ol]
ER-α In-Cell Western Assay (SP1): % ER-α remaining relative to Fulvestrant (ER-α): 2%
MCF7 Viability Assay: % Viability relative to Fulvestrant (MCF-7 cells): 7%
IC50 (MCF-7 cells; [1]): 0.3 nM

CC1=C(c2ccc(C#N)cc2)C(c2ccc(OCCN3CC(CF)C3)cc2)Oc2ccc(O)cc21 (stereo not shown) [Example 7, 4-(2-(4-(2-(3-(Fluoromethyl)azetidin-1-yl)ethoxy)phenyl)-6-hydroxy-4-methyl-2H-chromen-3-yl)benzonitrile]
ER-α In-Cell Western Assay (SP1): % ER-α remaining relative to Fulvestrant (ER-α): 2%
MCF7 Viability Assay: % Viability relative to Fulvestrant (MCF-7 cells): 0%
IC50 (MCF-7 cells; [1]): 3.5 nM

CC1=C(c2ccc(F)cc2)[C@@H](c2ccc(OC[C@H](C)N3CC[C@@H](C)C3)cc2)Oc2ccc(O)cc21 [(R)-3-(4-fluorophenyl)-4-methyl-2-(4-((S)-2-((R)-3-methylpyrrolidin-1-yl)propoxy)phenyl)-2H-chromen-6-ol, reference compound]
ER-α In-Cell Western Assay (SP1): % ER-α remaining relative to Fulvestrant (ER-α): 13%

CC1=C(c2ccc(Cl)c(F)c2)C(c2ccc(OCCN3CC(CF)C3)cc2)Oc2ccc(O)cc21 (stereo not shown) [Example 16, 3-(4-Chloro-3-fluorophenyl)-2-(4-(2-(3-(fluoromethyl)azetidin-1-yl)ethoxy)phenyl)-4-methyl-2H-chromen-6-ol]
ER-α In-Cell Western Assay (SP1): % ER-α remaining relative to Fulvestrant (ER-α): 1%
MCF7 Viability Assay: % Viability relative to Fulvestrant (MCF-7 cells): 1%
IC50 (MCF-7 cells; [1]): 0.71 nM

CC1=C(c2cccc(O)c2)C(c2ccc(OCCN3CC(C)C3)cc2)Oc2ccc(O)cc21 (stereo not shown) [Example 31, 3-(3-Hydroxyphenyl)-4-methyl-2-(4-(2-(3-methylazetidin-1-yl)ethoxy)phenyl)-2H-chromen-6-ol]
ER-α In-Cell Western Assay (SP1): % ER-α remaining relative to Fulvestrant (ER-α): 14%
MCF7 Viability Assay: % Viability relative to Fulvestrant (MCF-7 cells): 13%
IC50 (MCF-7 cells; [1]): 0.2 nM

CC1=C(c2ccc(Cl)cc2)C(c2ccc(OC[C@H](C)N3CC[C@@H](C)C3)cc2)Oc2ccc(O)cc21 (stereo partly drawn) [3-(4-chlorophenyl)-4-methyl-2-(4-((S)-2-((R)-3-methylpyrrolidin-1-yl)propoxy)phenyl)-2H-chromen-6-ol, reference compound]
ER-α In-Cell Western Assay (SP1): % ER-α remaining relative to Fulvestrant (ER-α): 15%
MCF7 Viability Assay: % Viability relative to Fulvestrant (MCF-7 cells): 14%
IC50 (MCF-7 cells; [1]): 1.9 nM

CC1=C(c2ccc(C#N)cc2)C(c2ccc(OC[C@H](C)N3CC[C@@H](C)C3)cc2)Oc2ccc(O)cc21 (stereo partly drawn) [4-(6-hydroxy-4-methyl-2-(4-((S)-2-((R)-3-methylpyrrolidin-1-yl)propoxy)phenyl)-2H-chromen-3-yl)benzonitrile, reference compound]
MCF7 Viability Assay: % Viability relative to Fulvestrant (MCF-7 cells): 15%
IC50 (MCF-7 cells; [1]): 10 nM

CC1=C(c2ccc(F)c(Cl)c2)C(c2ccc(OCCN3CC(CF)C3)cc2)Oc2ccc(O)cc21 (stereo not shown) [Example 13, 3-(3-Chloro-4-fluorophenyl)-2-(4-(2-(3-(fluoromethyl)azetidin-1-yl)ethoxy)phenyl)-4-methyl-2H-chromen-6-ol]
ER-α In-Cell Western Assay (SP1): % ER-α remaining relative to Fulvestrant (ER-α): 2%
MCF7 Viability Assay: % Viability relative to Fulvestrant (MCF-7 cells): 1%
IC50 (MCF-7 cells; [1]): 0.53 nM

CC1=C(c2ccc(C(F)(F)F)cc2)C(c2ccc(OCCN3CC(CF)C3)cc2)Oc2ccc(O)cc21 (stereo not shown) [Example 22, 2-(4-(2-(3-(Fluoromethyl)azetidin-1-yl)ethoxy)phenyl)-4-methyl-3-(4-(trifluoromethyl)phenyl)-2H-chromen-6-ol]
ER-α In-Cell Western Assay (SP1): % ER-α remaining relative to Fulvestrant (ER-α): 8%
MCF7 Viability Assay: % Viability relative to Fulvestrant (MCF-7 cells): 6%
IC50 (MCF-7 cells; [1]): 12 nM

CC1=C(c2ccc(Cl)cc2)C(c2ccc(OCCN3CC(CF)C3)cc2)Oc2cc(O)ccc21 (stereo not shown) [Example 28, 3-(4-Chlorophenyl)-2-(4-(2-(3-(fluoromethyl)azetidin-1-yl)ethoxy)phenyl)-4-methyl-2H-chromen-7-ol]
ER-α In-Cell Western Assay (SP1): % ER-α remaining relative to Fulvestrant (ER-α): 3%
MCF7 Viability Assay: % Viability relative to Fulvestrant (MCF-7 cells): 6%
IC50 (MCF-7 cells; [1]): 0.8 nM

CC1=C(c2cc(F)c(F)c(F)c2)C(c2ccc(OCCN3CC(CF)C3)cc2)Oc2ccc(O)cc21 (stereo not shown) [Example 19, 2-(4-(2-(3-(Fluoromethyl)azetidin-1-yl)ethoxy)phenyl)-4-methyl-3-(3,4,5-trifluorophenyl)-2H-chromen-6-ol]
ER-α In-Cell Western Assay (SP1): % ER-α remaining relative to Fulvestrant (ER-α): 0%
MCF7 Viability Assay: % Viability relative to Fulvestrant (MCF-7 cells): 0%
IC50 (MCF-7 cells; [1]): 0.42 nM

CC1=C(c2ccc(F)cc2)[C@@H](c2ccc(OCCN3CC(CF)C3)cc2)Oc2ccc(O)cc21 (single isomer, unassigned) [Example 2]
MCF7 Viability Assay: % Viability relative to Fulvestrant (MCF-7 cells): 3%
IC50 (MCF-7 cells; [1]): 26 nM

CC1=C(c2ccc(F)cc2)C(c2ccc(OCCN3CC(CF)C3)cc2)Oc2ccc(O)cc21 (stereo not shown) [Example 1, 2-(4-(2-(3-(Fluoromethyl)azetidin-1-yl)ethoxy)phenyl)-3-(4-fluorophenyl)-4-methyl-2H-chromen-6-ol]
MCF7 Viability Assay: % Viability relative to Fulvestrant (MCF-7 cells): 3%
IC50 (MCF-7 cells; [1]): 0.36 nM

CC1=C(c2ccc(F)c(F)c2)C(c2ccc(OCCN3CC(CF)C3)cc2)Oc2ccc(O)cc21 (stereo not shown) [Example 10, 3-(3,4-Difluorophenyl)-2-(4-(2-(3-(fluoromethyl)azetidin-1-yl)ethoxy)phenyl)-4-methyl-2H-chromen-6-ol]
ER-α In-Cell Western Assay (SP1): % ER-α remaining relative to Fulvestrant (ER-α): 1%
MCF7 Viability Assay: % Viability relative to Fulvestrant (MCF-7 cells): 2%
IC50 (MCF-7 cells; [1]): 0.41 nM
